Residues, ends and D or L forms follow the SMILES beside them. *: point of attachment. Doxorubicin(3'-N) = COc1cccc2c1C(=O)c1c(O)c3c(c(O)c1C2=O)C[C@@](O)(C(=O)CO)C[C@@H]3O[C@H]1C[C@H](N*)[C@H](O)[C@H](C)O1; Fmoc = O=C(OCC1c2ccccc2-c2ccccc21)*
Experiments:
[1] = test system: dsDNA (20 bp, 5′-CGTACGCGTACGCGTACGCG-3′ duplex); test: UV-Vis spectrophotometric titration with dsDNA (Benesi–Hildebrand); assay type: binding; conditions: 10 mM Tris-HCl pH 7.2, 25 °C
[2] = test system: dsDNA (20 bp, 5′-CGTACGCGTACGCGTACGCG-3′ duplex); test: Steady-state fluorescence quenching titration with dsDNA; assay type: binding; conditions: 10 mM Tris-HCl pH 7.2, 25 °C
dsDNA = test: Time-resolved fluorescence lifetime measurement; assay type: physicochemical; conditions: λex 420 nm, λem 594 nm, 20 °C, ligand 5 µM, constant regardless of dsDNA concentration (0–0.25 µM)
[3] = test system: dsDNA (20 bp, 5′-CGTACGCGTACGCGTACGCG-3′ duplex); test: Isothermal titration calorimetry (ITC) with dsDNA; assay type: binding; conditions: 10 mM Tris-HCl pH 7.2, 25 °C
[4] = test system: dsDNA (DNA, duplex) CGTACGCGTACGCGTACGCG/CGCGTACGCGTACGCGTACG; test: ITC (single set of identical sites); conditions: 10 mM Tris-HCl pH 7.2, 25 °C
[5] = test system: dsDNA (DNA, duplex) CGTACGCGTACGCGTACGCG/CGCGTACGCGTACGCGTACG; test: UV-Vis absorbance titration (Benesi–Hildebrand, 480 nm); conditions: 10 mM Tris-HCl pH 7.2, 25 °C; 18 µM compound, no added salt stated
[6] = test system: dsDNA (DNA, duplex) CGTACGCGTACGCGTACGCG/CGCGTACGCGTACGCGTACG; test: fluorescence quenching titration (Lineweaver–Burk, ex 490 nm, em 594 nm); conditions: 10 mM Tris-HCl pH 7.2, 25 °C; 1.94 µM compound; average of two experiments
[7] = test system: collagenase IV (containing MMP-2/-9); test: Enzymatic cleavage of MMP-2/-9-cleavable octapeptide by collagenase IV (HPLC); assay type: in vitro ADME; conditions: 37 °C, APMA-activated 1 mM collagenase IV in HBSS, HPLC read-out
Procedure: The MMP-2/-9-cleavable peptide was degraded by collagenase IV (containing MMP-2/-9) in a time-dependent manner. […] In order to investigate how fast the octapeptide cleaved, the aliquots were removed after 2, 8, and 12 h.
The MMP-2/-9-cleavable octapeptide Fmoc–Gly–Pro–Leu–Gly–Leu–Ala–Gly–Gly was evaluated by enzymatic digestion with the use of collagenase IV (containing MMP-2/-9). In the first step, 1 mL of HBSS was added to […] of collagenase IV (205 u/mg) and mixed to complete dissolution. Activation of collagenase IV was performed using 1 mM APMA in 0.15 M NaOH for 1.5 h at 37 °C [24, 43]. The octapeptide stock solution was added to activated 1 mM collagenase IV and incubated at 37 °C. The aliquots were removed and analyzed by HPLC, between 2 and 12 h. The HPLC Dionex Ultimate 3000 (Waltham, MA, USA) was equipped with a bioZen Intact XB-C8 column (3.6 μm, 2.1 × 150 mm; Phenomenex, Aschaffenburg, Germany). The flow rate was set at 0.5 mL/min with a mobile phase consisting of solvent A (0.1% TFA) and solvent B (100% ACN). The gradient was as follows: 0–5 min, 0% of solvent B; 5–8 min, 0–30% of solvent B. The hydrolysis product was detected by MALDI TOF/TOF 5800 mass spectrometry (AB Sciex, Darmstadt, Germany).

free energy of binding ΔG = −RTlnKA ([1]; from spectrophotometric KA) | number of binding sites n (Scatchard, slope of log[(F0−F)/F] vs log[Q]) ([2]; fluorescence titration, ligands bound per dsDNA molecule) | fluorescence lifetime τ0 (dsDNA) | logKITC ([4]; 0.174 mM compound into 0.002 mM dsDNA) | KA [5] | KA [6] | MMP-2/-9 cleaved product Fmoc–Gly–Pro–Leu–Gly detected (efficiency of enzymatic digestion) ([7]; 2 h incubation) | MMP-2/-9 cleaved product Fmoc–Gly–Pro–Leu–Gly detected (efficiency of enzymatic digestion) ([7]; 8 h incubation) | MMP-2/-9 cleaved product Fmoc–Gly–Pro–Leu–Gly detected (efficiency of enzymatic digestion) ([7]; 12 h incubation) | substrate (octapeptide) observed after incubation with collagenase IV ([7]; 12 h incubation) | logKITC ([4]; 0.470 mM compound into 0.005 mM dsDNA) | SMILES | intrinsic association constant KA (ligand…dsDNA), Benesi–Hildebrand ([1]; UV-Vis absorbance at 480 nm, ligand 18 µM, dsDNA up to 1.90 µM) | bimolecular quenching rate constant kq (Stern–Volmer) ([2]; fluorescence quenching by dsDNA, λex 490 nm, emission 594 nm, ligand 1.94 µM) | molar ratio of complex (ligand to dsDNA) from ITC ([3]; standard deviation in parentheses) | logKITC ([3]; ITC, single set of identical binding sites model, SD in parentheses) | ΔHITC ([3]; ITC, SD in parentheses) | TΔSITC ([3]; ITC, calculated from ΔGITC = ΔHITC − TΔSITC) | ΔGITC ([3]; ITC, ΔGITC = −RTlnKITC, SD in parentheses)
-34.4 kJ/mol | approximately 1.0 | 1.057 ± 0.022 ns | 6.03 (±0.04) log (unit not printed) | 1.1e+06 M⁻¹ | 1.1e+07 M⁻¹ |  |  |  |  |  | COc1cccc2c1C(=O)c1c(O)c3c(c(O)c1C2=O)C[C@@](O)(C(=O)CO)C[C@@H]3O[C@H]1C[C@H](N)[C@H](O)[C@H](C)O1 [DOX, Doxorubicin] | 1.1e+06 M⁻¹ | 9.37e+15 M⁻¹ s⁻¹ | 7.29 (±0.09) | 6.03 (±0.04) | −9.52 (±0.17) kcal/mol | -5.44 kJ/mol | −8.26 (±0.05) kcal/mol
 |  |  |  |  |  | 52.54% | 69.53% | 82.42% | 17.43% |  | CC(C)C[C@H](NC(=O)CNC(=O)[C@H](CC(C)C)NC(=O)[C@@H]1CCCN1C(=O)CNC(=O)OCC1c2ccccc2-c2ccccc21)C(=O)N[C@@H](C)C(=O)NCC(=O)NCC(=O)O [Fmoc–Gly–Pro–Leu–Gly–Leu–Ala–Gly–Gly] (Fmoc-GPLGLAGG-OH) |  |  |  |  |  |  | 
 |  |  |  | 540000 M⁻¹ | 5.6e+06 M⁻¹ |  |  |  |  | 4.24 (±0.09) log (unit not printed) | COc1cccc2c1C(=O)c1c(O)c3c(c(O)c1C2=O)C[C@@](O)(C(=O)CO)C[C@@H]3O[C@H]1C[C@H](NC(=O)CNC(=O)CNC(=O)[C@H](C)NC(=O)[C@@H](N)CC(C)C)[C@H](O)[C@H](C)O1 (H-LAGG-{Doxorubicin(3'-N)}) |  |  |  |  |  |  | 

Source: publication PMC7554696 (International Journal of Molecular Sciences, 2020)
